In ChEMBL document CHEMBL2216755, “Ranking high affinity ligands of low solubility by NMR spectroscopy” (ACS Med Chem Lett, 2011):

Key:
[1] = molecular target: T1, Peptidyl-prolyl cis-trans isomerase A (Homo sapiens, UniProt P62937); test: Binding affinity to human cyclophilin A by intrinsic tryptophan fluorescence
Target sequence in this assay (P62937 whole entry): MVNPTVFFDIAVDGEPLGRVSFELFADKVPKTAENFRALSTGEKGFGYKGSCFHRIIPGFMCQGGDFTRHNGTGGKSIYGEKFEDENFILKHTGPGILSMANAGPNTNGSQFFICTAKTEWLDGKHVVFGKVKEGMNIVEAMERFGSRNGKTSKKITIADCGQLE

[2] = molecular target: T1, Peptidyl-prolyl cis-trans isomerase A; test: Binding affinity to human cyclophilin A assessed as compound-enzyme complex formation at 1:1 protein to compound ratio by NMR analysis
Target sequence in this assay (P62937 whole entry, looked up): as the sequence (P62937 whole entry) above

Row | Structure (SMILES) | Kd [1] [nM] | Activity [2] [%]
1 | C/C=C/C[C@@H](C)[C@@H](O)[C@H]1C(=O)N[C@@H](CC)C(=O)N(C)CC(=O)N(C)[C@@H](C(C)C)C(=O)N[C@@H](C(C)C)C(=O)N(C)[C@@H](CC(C)C)C(=O)N[C@@H](C)C(=O)N[C@H](C)C(=O)N(C)[C@@H](CC(C)C)C(=O)N(C)[C@@H](CC(C)C)C(=O)N(C)[C@@H](C(C)C)C(=O)N1C | 11 | –
2 | C/C=C/C[C@@H](C)[C@@H](O)[C@H]1C(=O)N[C@@H](CC)C(=O)N(C)CC(=O)N(C)[C@@H](CC(C)C)C(=O)N[C@@H](C(C)C)C(=O)N(C)[C@@H](CC(C)C)C(=O)N[C@@H](C)C(=O)N[C@H](C)C(=O)N(C)[C@@H](CC(C)C)C(=O)N(C)[C@@H](C(C)C)C(=O)N(C)[C@@H](C(C)C)C(=O)N1C | – | 53
3 | C/C=C/C[C@@H](C)[C@@H](O)[C@H]1C(=O)N[C@@H](CC)C(=O)N(C)[C@H](C)C(=O)N(CC)[C@@H](C(C)C)C(=O)N[C@@H](C(C)C)C(=O)N(C)[C@@H](CC(C)C)C(=O)N[C@@H](C)C(=O)N[C@H](C)C(=O)N(C)[C@@H](CC(C)C)C(=O)N(C)[C@@H](CC(C)C)C(=O)N(C)[C@@H](C(C)C)C(=O)N1C [ALISPORIVIR] | 11 | 59
